{"source": "patent US6620792B1", "about": "“Pharmaceutical compositions containing monosialoganglioside GM1 or derivative thereof suitable for the treatment of parkinson's disease” (Fidia S.p.A., priority 1992, dated 2003)", "key": {"[1]": {"tested_on": "MPTP-treated cynomolgus monkeys", "experiment": "object grasping test in MPTP-treated cynomolgus monkeys", "type": "in vivo", "conditions": "GM1 15 mg/kg/day i.m., investigation end", "description": "The behaviour and neurologic functions of cynomolgus monkeys were also tested. Said monkeys were also trained to grasp an object, which has proven to be indicative of the motor and cognitive functions of MPTP-treated monkeys (Taylor J. R. et al., Brain, 113, 617, 1990).\nThe grasping test was carried out according to Diamond A.: “The development and neural bases of higher cognitive functions”, Annals of the New York Academy of Sciences, vol. 608, A. Diamond Ed. (The New York Academy of Sciences, New York, 637-676, 1990).\nBriefly, monkeys were trained to stretch their arm out of their cage to grasp food (raisins or apple) from a Plexiglas box (15 cm×15 cm×5 cm), open on one side and fastened to a platform allowing side movement and rotation.\nThe box open side could happen to be in front of, on the left or on the right side of the monkey. Each experiment consisted of 30 tests. The following events were recorded: successful arm stretchings (food grasped at the first attempt), correct stretchings (food grasped after various attempts), and “barrier” stretchings (i.e. towards the closed side of the box rather than-around the box until reaching the open side of same). Should no food be grasped within 5 minutes, the test was judged to be without response.\nFIG. 2 illustrates the effects produced by MPTP and GM1 on cynomolgus monkeys in the “object grasping” test. […]"}, "[2]": {"tested_on": "MPTP-treated squirrel monkeys", "experiment": "post-mortem striatal dopamine and metabolite levels by HPLC, squirrel monkeys", "type": "in vivo", "conditions": "MPTP/GM1, average (S.D.)", "description": "Post-mortem neurochemical examinations of striatal tissue were carried out for the determination of dopamine (DA) and relevant metabolites, e.g. homovanillic acid (HVA), and […] (DOPAC). DA and relevant metabolites striatal levels were quantified by electrochemical […] high pressure liquid chromatography (HPLC) (Schneider J. S., Brain Res., 24, 534, 1990)."}, "[3]": {"tested_on": "mesencephalic dopaminergic neurons", "experiment": "TOPA neurotoxicity in mesencephalic dopaminergic neuron cultures, TH immunofluorescence", "type": "cell-based, rat", "conditions": "for TH+ cells (% control): counted 24 h later, mean ± S.E.M.", "description": "Mesencephalic neuron cultures were prepared according to Dal Toso et al. (Dal Toso et al.: “Development and survival of neurons in dissociated fetal mesencephalic serum-free cell cultures: I. Effects of cell density and of an adult mammalian striatal-derived neuronotrophic factor (SDNF)”, J. Neurosci., 8 (3) 733-745, 1988) from the mesencephalic tegmentum of 14.5-15 days' rat embryos.\nNeurons (0.75×10^6) were plated on a poly-L-ornithine substrate in 12-well (25 mm dia. each) clusters.\nCultures were used between the fourth and the sixth day without changing the medium. […]\n2-hour pretreatment before acute incubation with TOPA;\ncotreatment only with LIGA 20 before acute incubation with TOPA;\npretreatment with/without cotreatment before (100 μM for 2 h) and/or during (100 μM for 24 h) prolonged incubation with TOPA. TOPA cytotoxicity was determined by evaluating cellular survival, and more precisely:\nTH immunofluorescence (specific for tyrosine hydroxylase) in mesencephalic dopaminergic neurons, as described by Berger et al. (Berger B. et al.: “Long-term development of mesencephalic dopaminergic neurons of mouse embryos in dissociated primary cultures: morphological and histochemical characteristics”, Neurosci., 7, 193-205, 1982);\nCytotoxicity is expressed as per cent cellular survival.\nThe results of the two tests (in triplicate) were analysed statistically according to Duncan's test."}}, "note": "Marks after values point to notes of the source that are not given here.", "data": [{"substance": "monosialoganglioside [GM1]", "values": [{"measurement": "object grasping test performance", "setting": "[1]", "result": "fulfilled the task almost perfectly"}, {"measurement": "DA striatal level", "setting": "[2]; Dorsolateral caudatum", "result": "8.6(1.2)* ng/mg protein"}, {"measurement": "DOPAC striatal level", "setting": "[2]; Dorsolateral caudatum", "result": "3.3(0.9)* ng/mg protein"}, {"measurement": "HVA striatal level", "setting": "[2]; Dorsolateral caudatum", "result": "46.2(6.5)* ng/mg protein"}, {"measurement": "DA striatal level", "setting": "[2]; Dorsolateral putamen", "result": "4.2(0.8)* ng/mg protein"}, {"measurement": "DOPAC striatal level", "setting": "[2]; Dorsolateral putamen", "result": "1.3(0.2)* ng/mg protein"}, {"measurement": "HVA striatal level", "setting": "[2]; Dorsolateral putamen", "result": "45.9(6.9)* ng/mg protein"}, {"measurement": "DA striatal level", "setting": "[2]; Ventromedial caudatum", "result": "37.4(4.2)* ng/mg protein"}, {"measurement": "DOPAC striatal level", "setting": "[2]; Ventromedial caudatum", "result": "12.7(3.6)* ng/mg protein"}, {"measurement": "HVA striatal level", "setting": "[2]; Ventromedial caudatum", "result": "56.6(11.9)* ng/mg protein"}, {"measurement": "DA striatal level", "setting": "[2]; Ventromedial putamen", "result": "21.9(6.1)* ng/mg protein"}, {"measurement": "DOPAC striatal level", "setting": "[2]; Ventromedial putamen", "result": "5.9(1.6)* ng/mg protein"}, {"measurement": "HVA striatal level", "setting": "[2]; Ventromedial putamen", "result": "87.5(17.3)* ng/mg protein"}, {"measurement": "number of neurons which survived the TOPA-induced toxic insult", "setting": "[3]; 10 μM GM1 with 1 ng/ml BDNF, compared with saturation concentration (50 ng/ml) of BDNF alone", "result": "not significantly different"}, {"measurement": "No. of TH+ cells", "setting": "[3]; 100 μM compound incubated with TOPA 10 μM for 24 h, average ± S.D., control 244 ± 20", "result": "187 ± 10 (b)"}, {"measurement": "TH+ cells (% control)", "setting": "[3]; 200 μM GM1 2 h pretreatment, washed, then 100 μM TOPA for 45 minutes", "result": "79.1 ± 4.0", "unit": "% control"}, {"measurement": "TH+ cells (% control)", "setting": "[3]; 200 μM GM1 cotreatment with 100 μM TOPA for 45 minutes, no drug 5.2 ± 1.1", "result": "5.6 ± 0.7", "unit": "% control"}, {"measurement": "effect of association with BDNF in protecting against TOPA-induced neurotoxicity", "setting": "[3]; ganglioside 1-10 μM with BDNF 1 ng/ml", "result": "synergic effect"}, {"measurement": "neuroprotective activity alone against TOPA-induced neurotoxicity", "setting": "[3]; ganglioside alone at 1-10 μM", "result": "no neuroprotective activity of their own"}]}]}
